# Earlier results in patent US20070027217A1, “Composition and Method for Preventing Secondary Burn Ischemia” (priority 2005, published 2007).
# Entries after “also recorded” stand apart in the source; their conditions may differ.
# What was measured:
# [1] = test system: burns; conditions: in vivo
# [2] = test system: 38% full thickness burn; conditions: burn victim taking ibuprofen for arthritis
# [3] = test system: burned hamster model; conditions: intravenous infusion
# [4] = test system: rat comb burn
smiles,measurement,setting,value
COc1ccc2c(c1)c(CC(=O)O)c(C)n2C(=O)c1ccc(Cl)cc1 [indomethacin],vascular occlusion and loss of blood flow in burns,[1],does not prevent vascular occlusion and loss of blood flow
CC(C)Cc1ccc(C(C)C(=O)O)cc1 (centres unmarked) [ibuprofen],hypermetabolic response during recovery,[2],failed to show the expected hypermetabolic response
same,vasodilation response to burn injury,[3],reduction in the vasodilation response
same,start of restoration of blood flow within interspaces,[4]; injected immediately after burn trauma,16 h
same,vascular occlusion / blood flow within the interspaces,[4]; systemic application or injection,preserves blood flow; also recorded: restores vessel patency and blood flow
